From ChEMBL document CHEMBL5604062, “ASAP - ZIKV NS2B-NS3 protease fluorescence dose response” (2024)
pIC50: −log10 of the molar value. Several values for one entry are separate records, joined by “and”; a condition that tells them apart may be missing. Identical values can stand only once.

target: Nonstructural protein 3 (Zika virus, UniProt A0A024AXB9); experiment: Functional biochemical assay to identify treatments for viral infectious disease that targets Zika NS2B-NS3 protease. Utilizing a direct enzyme activity measurement method, reading the fluorescence intensity is used to characterize the relative potency of inhibitors as IC50.; set-up: species or system PRVABC59
Sequence (A0A024AXB9 whole entry): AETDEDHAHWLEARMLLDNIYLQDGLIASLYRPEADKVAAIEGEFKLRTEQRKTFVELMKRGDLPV

| SMILES | pIC50 | IC50 |
| --- | --- | --- |
| O=C(Nc1cc(Cl)cc(C(=O)Nc2ccnc([C@H]3CCCN3)n2)c1)OCc1ccccc1 | 4.08 | – |
| NCc1cccc(NC(=O)Cc2ccc(OCc3ccccc3)cc2)c1 | < 4.00 | – |
| CNC(=O)C[C@H](Nc1ccccn1)c1cc(Cl)cc(Br)c1 | < 4.00 | – |
| O=C(N[C@@H](C(=O)NC1CNC1)c1ccc(OCc2ccccc2)cc1)OCc1ccccc1 | < 4.00 | – |
| Cc1ccc([C@H]2[C@H](C)CN2C(=O)c2ccc(C(F)(F)CN)cc2)cc1 | < 4.00 | – |
| O=C(Nc1ccc2c(c1)CNC2)c1c(Cl)ccc2c1OCO2 | < 4.60 | – |
| c1ccc2c(CN3CCCc4cnccc4C3)n[nH]c2c1 | < 4.00 | – |
| Cc1c(C(=O)Nc2cc(C(=O)N3C[C@@H]4[C@H](O)[C@@H]4C3)ccn2)cc(C2CC2)n1C | < 4.60 | – |
| COc1c(C(=O)N(C)C)cc(Cl)cc1S(=O)(=O)Nc1cccc(-c2nnn[nH]2)c1 | < 4.00 | – |
| O=C(Nc1cc(Cl)cc(C(=O)NCC[C@H]2C[C@@H]2C(=O)O)c1)OCc1ccccc1 | < 4.00 | – |
| Fc1cc(F)c2[nH]cc(CN3CCC(c4cscn4)CC3)c2c1F | < 4.00 | – |
| O=C1Cc2c(cccc2C(=O)NC2CCN(c3nccs3)CC2)N1 | < 4.60 | – |
| COC(=O)CNC(=O)[C@H](Nc1ccc2c(c1)CNC2)c1cc(Cl)cc(C2CC2)c1 | 7.01 and 7.14 | – |
| CCc1nccn1CC(=O)Nc1ccc2c(c1)CNC2 | < 4.00 | – |
| O=C(O)c1cc(Cl)ccc1S(=O)(=O)Nc1ccc(-c2n[nH]c3c2CCCC3)cc1 | < 4.00 | – |
| Clc1ccc2ncn(Cc3ccc4c(c3)CNC4)c2c1 | < 4.00 | – |
| CCCOc1ccc([C@@H](CC(=O)Nc2cccc(CN)c2)NC(=O)OCc2ccccc2)cc1 | < 4.00 and 4.18 | – |
| O=C(O)c1cc2cc(-c3cc(Cl)cc4c3O[C@H](CO)C4)ccc2[nH]1 | < 4.60 | – |
| NCc1ccccc1C1CCN(C(=O)[C@@]23CNC[C@]2(C(F)(F)F)C3)CC1 | < 4.00 | – |
| CCCCCN(C)C(=O)c1cc(Cl)ccc1NS(=O)(=O)c1ccc(Oc2ccccc2Cl)cc1 | < 4.00 | – |
| c1ccc2c(CN[C@H]3CCc4ncsc4C3)n[nH]c2c1 | < 4.00 | – |
| Cc1c(C(=O)Nc2ccc3c(c2)C(=O)N(C)C3)cc(C2CC2)n1C | < 4.60 | – |
| CC[C@H](C(=O)Nc1cccc(CN)c1)n1cc(Br)c(C(F)(F)F)n1 | < 4.00 | – |

| SMILES | pIC50 | IC50 |
| --- | --- | --- |
| CCOCCNC(=O)c1cc(Cl)ccc1NS(=O)(=O)c1ccc(Oc2ccccc2Cl)cc1 | 4.04 and < 4.00 | – |
| O=C(Cn1ccnc(N2CC[C@H](CO)C2)c1=O)N1CCOCC1 | < 4.00 | – |
| O=C(c1cccnc1)N1CCN(Cc2c[nH]c3ccccc23)CC1 | < 4.00 | – |
| O=c1[nH]c(CSc2ccccc2Cl)nc2ccsc12 | < 4.00 | – |
| N[C@H]1COC[C@H]1n1cc(C(=O)Nc2cc(-c3cccnc3)ccn2)cn1 | < 4.60 | – |
| O=C(O)c1cc(Cl)ccc1S(=O)(=O)NC1CCN(CC2CCOCC2)CC1 | < 4.00 | – |
| CCn1cc(C#N)nc(N2CC[C@@H](CO)C2)c1=O | < 4.00 | – |
| C#C[C@H](Nc1ccc2c(c1)CNC2)c1cccc2c1CCNC2=O | < 4.60 | – |
| CCOc1cccc(-c2cccc(NC(=O)c3cc(C4CC4)n(C)c3C)n2)c1 | < 4.60 | – |
| NCc1cc(C(F)(F)F)cc(-c2ccc3[nH]c(C(=O)O)cc3c2)n1 | < 4.00 | – |
| O=C(NC1CCOCC1)[C@H](Nc1ccc2c(c1)CNC2)c1cc(Cl)cc2[nH]ncc12 | 7.52 and 7.68 | – |
| CC(C)(C)OC(=O)N[C@H](C(=O)Nc1cccc(CN)c1)c1ccc(OCc2ccccc2)cc1 | < 4.00 | – |
| O=C(Nc1ccc2c(c1)CNC2)c1cc(Cl)cc(-n2cccc2)c1 | 7.04 and 7.08 | – |
| O=C(Nc1ccccc1)OCc1ccccc1 [BENZYL PHENYLCARBAMATE] | < 4.00 | – |
| CC[C@@H](NCc1c[nH]c2ccccc12)c1cccnc1 | < 4.00 | – |
| Cn1ncc2c(C(=O)Nc3ccc4c(c3)CNC4)cc(-c3cccnc3)nc21 | < 4.60 | – |
| COc1ccc(S(=O)(=O)Nc2ccc(C(=O)Nc3nc4ccccc4s3)cc2)cc1 | < 4.00 | – |
| Cc1c(C(=O)Nc2cccc([C@H]3CCNC3)c2)cc(C2CC2)n1C | < 4.00 | – |
| O=C(Nc1ccc2c(c1)CNC2)c1cc(Cl)cc2[nH]ncc12 | – | < 50 nM (2×) and 139 nM and 164 nM |
| Cc1cc(C)c([C@@H](NC(=O)OCc2ccccc2)C(=O)Nc2cccc(CN)c2)c(C)c1 | < 4.00 | – |
| O=C(Nc1ccc2c(c1)CNC2)c1ccc2scnc2c1 | 4.82 and < 4.60 | – |
| O=C(Nc1ccc2c(c1)CNC2)c1cc(F)cc2nn(-c3ccccn3)nc12 | 6.95 and 6.89 | – |
| Cc1c(C(=O)Nc2nccc3c2CNCC3)cc(C2CC2)n1C | < 4.00 | – |

| SMILES | pIC50 | IC50 |
| --- | --- | --- |
| O=C(Nc1cc(Cl)cc(C(=O)Nc2cccc(-c3cc[nH]n3)c2)c1)OCc1ccccc1 | < 4.00 | – |
| NCc1cccc(NC(=O)[C@@H](NC(=O)OCc2ccccc2)c2ccc(F)cc2)c1 | < 4.00 | – |
| O=C(Nc1ccc2c(c1)CNC2)N1C[C@H](C2CC2)C[C@@H]1C1CC1 | < 4.60 | – |
| C[C@H]1CCC[C@H](C(=O)Nc2cccc(CN)c2)O1 | < 4.00 | – |
| CC(=O)N1Cc2ccc(NC(=O)c3cc(Cl)cc4[nH]ncc34)cc2C1 | < 4.60 | – |
| CCn1cc(C(=O)NCc2ccccc2)nc(N2CC[C@@H](CO)C2)c1=O | < 4.00 | – |
| CCc1cc(C(=O)Nc2ccc3c(c2)CNC3)sc1-c1ccc(Cl)cc1 | < 4.00 | – |
| c1nc(C2CCN(Cc3n[nH]c4c3CCC4)CC2)cs1 | < 4.00 | – |
| NCc1cccc(S(=O)(=O)Cc2cc(Cl)cc(NC(=O)OCc3ccccc3)c2)c1 | 4.03 | – |
| NCC1(c2ccc(C(=O)N3CCc4scc(Br)c4C3)cc2)CC1 | < 4.00 | – |
| O=C(O)c1cc(Cl)ccc1S(=O)(=O)NC1CCN(C(=O)c2ccccc2C(F)(F)F)CC1 | < 4.00 | – |
| O=C(c1cc(Cl)ccc1NS(=O)(=O)c1ccc(Oc2ccccc2Cl)cc1)N1CC[C@H](CO)C1 | < 4.00 | – |
| NC(=O)c1[nH]c2ccc(Br)cc2c1Cc1ccc(-c2nnn[nH]2)cc1 | < 4.00 | – |
| CNC(=O)[C@]1(Nc2ccc3c(c2)CNC3)C(=O)Nc2ccc(Cl)cc21 | < 4.60 | – |
| O=C(Nc1ccc2c(c1)CNC2)c1c(Br)ccc2[nH]ncc12 | < 4.60 | – |
| O=C(N[C@@H](C(=O)NCc1ccc(CN2CCCC2)cc1)c1ccc(OCc2ccccc2)cc1)OCc1ccccc1 | < 4.00 | – |
| C[C@@H]1CNC[C@H]1c1ccc(NC(=O)c2ccc3c(c2)SCCN3)cc1 | < 4.00 | – |
| N#C[C@H](Nc1ccc(CC(=O)O)cn1)c1cc(Cl)cc(C2CC2)c1 | < 4.00 | – |
| O=C1Cc2c(cccc2C(=O)N[C@H]2C[C@H](c3ccon3)C2)N1 | < 4.60 | – |
| CC(C)[C@H](N)P(=O)(Oc1ccc(F)cc1)Oc1ccc(F)cc1 | < 4.00 | – |
| Cc1c(CN)cccc1NS(=O)(=O)c1ccc(Oc2ccccc2Cl)cc1 | < 4.00 | – |

Further molecules by rising pIC50, results first:

| pIC50 | IC50 | SMILES |
| --- | --- | --- |
| 4.10 | – | N#Cc1ccccc1-c1ccc(S(=O)(=O)Nc2ccc(Cl)cc2C(=O)O)cc1 |
| 4.15 | – | CN(C)Cc1ccc(NC(=O)c2cc(Cl)cc(NC(=O)OCc3ccccc3)c2)cc1 |
| 4.19 | – | CC(C)Oc1cc(CN)ccc1NS(=O)(=O)c1ccc(Oc2ccccc2Cl)cc1 |
| 4.26 | – | OCc1cc(C2CCN(Cc3c[nH]c4ccccc34)CC2)no1 |
| 4.27 | – | O=C(Nc1cc(Cl)cc(C(=O)Nc2nc3c(s2)CCNC3)c1)OCc1ccccc1 |
| 4.36 | – | Cc1ccc(S(=O)(=O)N2Cc3ccccc3C[C@@H](C(=O)Nc3cccc(CN)c3)C2)cc1 |
| 4.42 | – | CNC(=O)c1cc(Cl)c(F)cc1NS(=O)(=O)c1ccc(Oc2ccccc2Cl)cc1 |
| 4.45 | – | COc1ccc(-c2cccc([C@@H](NC(=O)OCc3ccccc3)C(=O)Nc3cccc(CN)c3)c2)cn1 |
| 4.57 | – | COCc1cc(Cl)cc(C(=O)Nc2cccc(CN)c2)c1 |
| 4.57 | – | NCc1ccc2c(c1)[C@H](N1CCCC1=O)C[C@H](c1cc(Cl)cc(NC(=O)OCc3ccccc3)c1)N2 |
| 4.58 | – | CCc1cc(Br)cc2c(Cc3ccc(-c4nnn[nH]4)cc3)c[nH]c12 |
| 4.60 | – | c1ccc2c(CN3CCC(c4c[nH]c5cccnc45)CC3)c[nH]c2c1 |
| 4.63 | – | O=C(Nc1ccc2c(c1)CNC2)c1ccc2ncsc2n1 |
| 4.67 | – | NC[C@H]1C[C@@H]1NC(=O)c1cc(Cl)cc(NC(=O)OCc2ccccc2)c1 |
| 4.70 | – | NCCCCc1ccc(NC(=O)c2cc(Cl)cc3[nH]ncc23)cc1 |
| 4.75 | – | NCc1cccc(N[C@H](C#CCO)c2cc(Cl)cc(NC(=O)OCc3ccccc3)c2)c1 |
| 4.78 | – | NCc1cccc(NC(=O)c2cccn3cc(CN4CCCC4)nc23)c1 |
| 4.82 | – | C[C@H]1C[C@H](c2cccc(CN)c2)[C@@H](c2cc(Cl)cc(NC(=O)OCc3ccccc3)c2)C1 |
| 4.97 | – | NC[C@H]1CC[C@@H](NC(=O)c2cc(Cl)cc3[nH]ncc23)CC1 |

| pIC50 | IC50 | SMILES |
| --- | --- | --- |
| 4.98 | – | NCCc1cccc(-c2cccc([C@@H](NC(=O)OCc3ccccc3)C(=O)Nc3cccc(CN)c3)c2)c1 |
| 4.99 | – | N#C[C@H](Nc1ccc2c(c1)CNC2)c1n[nH]c2cc(C(F)(F)F)ccc12 |
| 5.00 | – | COc1ccc(CN2Cc3cc(NC(=O)c4cc(Cl)cc5[nH]ncc45)cc(Br)c3C2)cc1 |
| 5.10 | – | O=C(Nc1cc(-c2cccnc2)ccn1)c1cnn2c1CCCC2 |
| 5.10 | – | C=CC[C@H](Nc1ccc2c(c1)CNC2)c1cc(Cl)cc2[nH]ncc12 |
| 5.14 | – | CN1Cc2cc(NC(=O)c3cc(Cl)cc4[nH]ncc34)ccc2C1(C)C |
| 5.14 | – | N#C[C@H](Nc1ccc2c(c1)CNC2)c1cccc2ncccc12 |
| 5.22 | – | NCc1cccc(NC(=O)c2cc(Cl)cc3c2CCC3)c1 |
| 5.70 | – | N#Cc1ccc(Cl)c(C(=O)Nc2ccc3c(c2)CNC3)c1 |
| 5.87 | – | Clc1cc([C@H](C#CC2CC2)Nc2ccc3c(c2)CNC3)c2cn[nH]c2c1 |
| 5.91 | – | O=C1CCN(c2cc(Cl)cc(C(=O)Nc3ccc4c(c3)CNC4)c2)C(=O)N1 |
| 6.27 | – | CC(C)NC(=O)[C@H](Nc1ccc2c(c1)CN(C)C2)c1cc(Cl)cc2[nH]ncc12 |
| 6.31 | – | N[C@H]1Cc2ccc(NC(=O)c3cc(Cl)cc4[nH]ncc34)cc2C1 |
| 6.43 | – | O=C(Nc1ccc2c(c1)CCNCC2)c1cc(Cl)cc2[nH]ncc12 |
| 6.58 | – | O=C(Nc1ccc2c(c1)CNC2)c1cc(Br)cc2[nH]c([C@H]3CCOC3)nc12 |
| 6.58 | – | CN1C(=O)CC[C@H]1c1nc2c(C(=O)Nc3ccc4c(c3)CNC4)cc(F)cc2[nH]1 |
| 6.63 | – | O=C(Nc1ccc2c(c1)CNC2)c1cc(F)cc(-c2cnc3n2CCC3)c1 |
| 6.94 | – | O=C(Nc1ccc2c(c1)CNC2)c1cc(Cl)cc(N2CCCC2)c1 |
